For experiment [1], the target named is T1, Pen-2 (Homo sapiens, UniProt Q9NZ42).
T1 construct: endogenous in cells; host or cells: PS1-deficient cells (not further described)
Put plainly: Binding of Compound 1 to Pen-2 in lysates prepared from PS1-deficient cells.

Experiment [2] deals with T2, APP holoenzyme (APP-Holo) (Homo sapiens, UniProt P05067, K670N/M671L).
T2 construct: expressed in transfected cells; host or cells: CHO (Chinese Hamster Ovary)
Description: Compound 1-conjugated Affi-Gel resin pull-down from CHO-APPSwe whole-cell lysate, immunoblot. The class given is binding. Here is the method:
(§1) Compound 1, which bears a primary amine, was conjugated to Affi-Gel 10 resin (BioRad #153-6046) according to manufacturer's instructions. Compound 1 was dissolved in DMSO to a final concentration of 15 mg/ml. One ml of compound was mixed with approximately 1 ml of resin previously equilibrated in isopropanol. The compound and resin were rotated at room temperature for approximately 3 hr, washed with DMSO and the remaining unreacted groups were blocked with ethanolamine. The efficiency of coupling was generally greater than 80%, as determined by LC-MS analysis, with approximately 10-15 μmol of compound per ml of resin final concentration.
Solubilized whole-cell lysates from CHO-APPSwe cells (Chinese Hamster Ovary cells expressing human APP^695 with the K670N/M671L “Swedish” mutation) were prepared in PLC buffer (20 mM Hepes pH 7.5, 1 mM EDTA, 150 mM NaCl, 1% Triton X-100, 0.2% Tween-20). Lysates were pre-cleared by incubating with 200 μl of blocked resin at 4° C. for 1 hr. The resin was pelleted and the resulting lysate was centrifuged at 13,000×g for 15 min to pellet any protein precipitates. One mg (approximately 2 mg/ml) of the pre-cleared whole cell lysate was incubated with 100 μl of either Compound 1-conjugated resin, or with unconjugated resin, for two hours at room temperature, with constant rotation. […]
In general terms: In western blotting, separated proteins are transferred to a membrane and probed.

The target of a further experiment is T3, Purified Pen-2 (Homo sapiens, UniProt Q9NZ42).
T3 construct: GST (N, cleaved yes); purchased Abnova Corp H00055851-PO1
Description: Compound 1-conjugated Affi-Gel resin binding of isolated protein, immunoblot. As to conditions: elute lane, vs unconjugated resin. Here is the method: (§2) Prior to assessing binding to Compound 1, the proteins used in the binding assay were characterized. Purified GST (Abnova Corp) and GST-Pen2 (Abnova Corp #H00055851-PO1) proteins were confirmed to react with anti-GST (Novagen #71097-3) and anti-Pen-2 (PNT2) antibodies on an immunoblot. […] To prepare purified Pen-2, about 1 μg of GST-Pen-2 was incubated with 4 μg of PreScission™ protease for 4 hr at 4° C. in Cleavage Buffer (50 mM Tris pH 7.4, 150 mM NaCl, 1 mM EDTA, 1% Triton X-100, 10% glycerol, 1 mg/ml phosphatidylcholine). Free GST and protease were removed by adding glutathione resin (Sigma #G4510) for 1 hr with rotation, and spinning down the resin. The supernatant, containing purified Pen-2, was collected.
(§3) Compound 1-conjugated and unconjugated Affi-Gel 10 resins were prepared essentially as described in Example 1. […]

For a further experiment, the target named is T4, GST (Schistosoma japonicum, UniProt P08515).
T4 construct: purchased Abnova Corp
Described as above. Here is the method:
as §2, §3

The subject of another experiment is nicastrin (Nct). Put plainly: Compound 1-conjugated Affi-Gel resin pull-down from CHO-APPSwe whole-cell lysate, immunoblot. The format is binding, Chinese Hamster. Here is the method: as §1
(§4) Solubilized whole-cell lysates from CHO-APPSwe cells (Chinese Hamster Ovary cells expressing human APP^695 with the K670N/M671L “Swedish” mutation) were prepared in PLC buffer (20 mM Hepes pH 7.5, 1 mM EDTA, 150 mM NaCl, 1% Triton X-100, 0.2% Tween-20). Lysates were pre-cleared by incubating with 200 μl of blocked resin at 4° C. for 1 hr. The resin was pelleted and the resulting lysate was centrifuged at 13,000×g for 15 min to pellet any protein precipitates. One mg (approximately 2 mg/ml) of the pre-cleared whole cell lysate was incubated with 100 μl of either Compound 1-conjugated resin, or with unconjugated resin, for two hours at room temperature, with constant rotation. After incubation, the resin was pelleted at low speed and the supernatant (i.e. unbound proteins) collected. The resin was washed 3-5 times with 1 ml of PLC buffer. Bound proteins were eluted with 200-300 μl aliquots of SDS denaturing sample buffer (0.25 M Tris-HCl, pH 6.8; 5% (w/v) SDS; 0.05% bromophenol blue; 10% glycerol; 2.5% 2-mercaptoethanol). Equal volumes of whole cell lysate (WCL) and supernatant in SDS denaturing sample buffer, as well as eluates from each resin, were run in separate lanes on a 4-20% SDS-PAGE gel. The electrophoresed proteins were transferred to a nitrocellulose membrane (Invitrogen #LC2001) and immunoblotted with antibodies that specifically recognize either Pen-2 (PNT2; gift of Gopal Thinakaran, see Luo et al. (2003), J. Biol. Chem. 278:7850-7854), presenilin 1 N-terminal fragment (PS1-NTF; gift of Gopal Thinakaran), presenilin 1 C-terminal fragment (PS1-CTF; Calbiochem #529592), nicastrin (Nct; Sigma #N-1660), amyloid precursor protein (APP; antibody R8666, PCT publication WO 04/018997) or phopholipase C-gamma (PLCγ; Upstate #06-152).

Experiment [3] has as its system phopholipase C-gamma (PLCγ). The experiment is described as above. The format is binding, Chinese Hamster. How it is done:
as §1, §4

The subject of experiment [4] is Pen-2. The description is as above. The class given is binding, Chinese Hamster. Here is the method:
as §1, §4

Experiment [5] relates to presenilin 1 C-terminal fragment (PS1-CTF). Described as above. The class given is binding, Chinese Hamster. Here is the method:
as §1, §4

For experiment [6], the system named is presenilin 1 N-terminal fragment (PS1-NTF). Described as above. The format is binding, Chinese Hamster. As to conditions: some present in eluate, not substantially depleted from starting lysate. How it is done: as §1, §4
In another experiment the target is GST-Pen2 (Homo sapiens, UniProt Q9NZ42). Description: Compound 1-conjugated Affi-Gel resin binding of isolated protein, immunoblot. The following applies: elute lane, vs unconjugated resin. Details: purchased Abnova Corp H00055851-PO1. How it is done:
as §2, §3

T2 sequence (P05067 other isoform, or with tags, fused parts or gaps K595N/M596L): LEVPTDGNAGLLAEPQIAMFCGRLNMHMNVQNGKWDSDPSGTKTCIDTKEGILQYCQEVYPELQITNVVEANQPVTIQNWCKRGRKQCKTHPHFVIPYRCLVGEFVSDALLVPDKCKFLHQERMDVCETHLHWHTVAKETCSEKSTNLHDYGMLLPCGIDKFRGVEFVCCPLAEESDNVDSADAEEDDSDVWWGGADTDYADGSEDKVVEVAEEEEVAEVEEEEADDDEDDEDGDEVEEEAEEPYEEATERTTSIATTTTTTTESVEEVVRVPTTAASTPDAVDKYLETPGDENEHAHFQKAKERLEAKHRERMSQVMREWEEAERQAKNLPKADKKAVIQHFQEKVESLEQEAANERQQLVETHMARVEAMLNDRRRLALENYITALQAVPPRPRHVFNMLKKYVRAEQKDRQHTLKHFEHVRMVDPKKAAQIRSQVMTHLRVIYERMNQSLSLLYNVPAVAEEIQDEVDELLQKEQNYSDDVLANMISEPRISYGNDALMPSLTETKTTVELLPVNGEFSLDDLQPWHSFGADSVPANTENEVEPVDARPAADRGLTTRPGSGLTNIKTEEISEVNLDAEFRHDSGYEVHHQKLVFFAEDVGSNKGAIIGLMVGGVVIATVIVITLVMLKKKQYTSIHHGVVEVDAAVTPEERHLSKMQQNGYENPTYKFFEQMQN
T4 sequence (P08515 whole entry): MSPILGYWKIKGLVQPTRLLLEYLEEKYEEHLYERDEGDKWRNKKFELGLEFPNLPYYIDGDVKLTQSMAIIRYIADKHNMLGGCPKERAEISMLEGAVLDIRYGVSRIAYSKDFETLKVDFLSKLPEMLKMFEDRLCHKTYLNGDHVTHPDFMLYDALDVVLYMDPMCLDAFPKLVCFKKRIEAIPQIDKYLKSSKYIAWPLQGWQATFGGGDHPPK
T1 sequence (Q9NZ42 whole entry): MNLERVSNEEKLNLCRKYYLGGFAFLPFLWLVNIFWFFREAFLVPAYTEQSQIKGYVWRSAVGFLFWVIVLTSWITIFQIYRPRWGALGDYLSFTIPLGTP
T3 sequence (Q9NZ42 whole entry): as above
Chain of GST-Pen2 (Q9NZ42 whole entry): as above

Regarding `Cc1cn(-c2ccc(-c3csc(Nc4cc(C(C)C)c(OCCN)cc4C)n3)cc2F)cn1` [Compound 1], on Pen-2 [1], the “binding to Pen-2 present in lysates prepared from PS1-deficient cells” value is “demonstrated binding”. In [2], the “binding of APP-Holo to Compound 1-conjugated resin” value is “did not bind”. In addition, the “binding of purified Pen-2 to Compound 1-conjugated resin” value on Purified Pen-2 is “selectively bind”. The “binding of GST to Compound 1 resin” value at GST is “did not bind”. The “binding of Nct to Compound 1-conjugated resin” value in the experiment on nicastrin (Nct) is recorded as “did not bind”. For the same compound, the “binding of PLCγ to Compound 1-conjugated resin” value in experiment [3] is recorded as “did not bind”. The “depletion of Pen-2 from whole cell lysate applied to the Compound 1-conjugated column” value with Pen-2 [4] is on record as “substantially depleted”. In addition, the “Pen-2 in SDS eluate from resin” value in the experiment with Pen-2 [4] (Compound 1-conjugated vs unconjugated Affi-Gel 10 resin, 2 h room temperature) is “present in the SDS eluate from the Compound 1-conjugated resin, but not from the unconjugated resin”. In addition, in experiment [5], the “binding of PS1-CTF to Compound 1-conjugated resin” value was “did not bind”. For the same compound, in experiment [6], the “binding of N-terminal fragment (NTF) of PS1 to Compound 1” value was “minimal binding”. Further, on GST-Pen2, the “binding of GST-Pen-2 to Compound 1-conjugated resin” value was “selectively bind”.
